Our source for the TGI values is PubChem BioAssay (NCI).

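Exposure lasted 48 hours, with cells grown in 96-well plates and compounds tested at five concentrations. TGI marks complete inhibition of growth.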 Where a SMILES comes first, the peptide text is derived from it. Bridges are numbered along the chain shown (N, C = ends).

Among the test systems are EKVX NSCLC; OVCAR-3 ovarian; SR leukemia; SF-539 CNS; MDA-N; LOX IMVI melanoma; HCT-15 colon; MCF7 breast; SNB-19 CNS; SK-MEL-5 melanoma.
Test in all cases: NCI-60 cell line screen, 48 h

With `O=[N+]([O-])/C(Cl)=C(\NCCO)C(Cl)=C(Cl)Cl`, the TGI in the assay on EKVX NSCLC is greater than 100 µM; in the assay on OVCAR-3 ovarian, greater than 100 µM; in the assay on SR leukemia it was 49.2 µM; with SF-539 CNS, greater than 100 µM; with MDA-N, greater than 96.3 µM; with LOX IMVI melanoma, greater than 100 µM. Also, the TGI with HCT-15 colon is 76.8 µM; in the assay on MCF7 breast it was greater than 100 µM; in the assay on SNB-19 CNS it was greater than 100 µM; in the assay with SK-MEL-5 melanoma it was greater than 100 µM.

Take `COc1ccc(-c2c(/C=N/OCC(=O)O)c3sc4ccccc4n3c2/C=N/OCC(=O)O)cc1`: the TGI in the assay with EKVX NSCLC, in the assay on OVCAR-3 ovarian, in the assay with MDA-N, with LOX IMVI melanoma, with HCT-15 colon and in the assay on MCF7 breast was greater than 50 µM each time. In addition, the TGI with SNB-19 CNS and with SK-MEL-5 melanoma was greater than 50 µM throughout.

As for `CCOC(=O)C1=C(N2CCCC2)C(=O)C(C(=O)OCC)C1` (stereo not drawn), the TGI in the assay with EKVX NSCLC, in the assay with OVCAR-3 ovarian, in the assay with SF-539 CNS, in the assay on MDA-N, in the assay with LOX IMVI melanoma and in the assay on HCT-15 colon was greater than 100 µM in each case. In addition, the TGI in the assay on MCF7 breast, in the assay on SNB-19 CNS and in the assay with SK-MEL-5 melanoma was greater than 100 µM in each case.

For the compound `CC(=O)OC1C2CCC3CC2C2(SCCS2)C31` (stereo not drawn), the TGI in the assay on EKVX NSCLC, in the assay with OVCAR-3 ovarian, with SR leukemia, with SF-539 CNS, in the assay with MDA-N and in the assay on LOX IMVI melanoma was greater than 100 µM each time. Moreover, the TGI in the assay on HCT-15 colon, in the assay with MCF7 breast, with SNB-19 CNS and in the assay on SK-MEL-5 melanoma was greater than 100 µM throughout.

Take `Cc1cccc(NC(=S)Nc2cccc(Cl)c2)n1`: the TGI with EKVX NSCLC, in the assay on OVCAR-3 ovarian, in the assay on SR leukemia, in the assay with SF-539 CNS, with MDA-N and with LOX IMVI melanoma was greater than 100 µM in each case. Further, the TGI with HCT-15 colon, in the assay with MCF7 breast, in the assay with SNB-19 CNS and with SK-MEL-5 melanoma was greater than 100 µM in each case.

Turning to `CC1=NN(c2ccccc2)C(=O)/C1=C\c1c(C)[nH]n(-c2ccccc2)c1=O`, the TGI in the assay with EKVX NSCLC, in the assay on OVCAR-3 ovarian, in the assay with SR leukemia, in the assay on SF-539 CNS, in the assay with MDA-N and with HCT-15 colon was greater than 100 µM throughout. The TGI with MCF7 breast, with SNB-19 CNS and with SK-MEL-5 melanoma was greater than 100 µM in each case.

Turning to `COc1ccc(-c2nc(-c3cnccn3)n(C/C=C/c3ccccc3)n2)cc1`, the TGI with OVCAR-3 ovarian, in the assay on SR leukemia, in the assay with SF-539 CNS, with MDA-N, in the assay with LOX IMVI melanoma and in the assay with HCT-15 colon was greater than 100 µM throughout. The TGI in the assay on MCF7 breast, in the assay on SNB-19 CNS and in the assay with SK-MEL-5 melanoma was greater than 100 µM throughout.

As to `N#Cc1nc(CN2C(=O)c3ccccc3C2=O)oc1N`, the TGI in the assay on OVCAR-3 ovarian, with SR leukemia, with SF-539 CNS, with MDA-N, in the assay with HCT-15 colon and in the assay on MCF7 breast was greater than 100 µM throughout. The TGI with SK-MEL-5 melanoma is greater than 100 µM.

Turning to `CCC1OC2(C)CC(C#N)(C#N)C1(C#N)C(=N)O2` (stereo not drawn), the TGI with EKVX NSCLC, in the assay with OVCAR-3 ovarian, with SF-539 CNS, in the assay on MDA-N, in the assay on LOX IMVI melanoma and in the assay on MCF7 breast was greater than 100 µM each time. Moreover, the TGI in the assay with SNB-19 CNS and in the assay with SK-MEL-5 melanoma was greater than 100 µM each time.

In the case of `CC1(C)CC(=O)C2=C(C1)NC(=S)C(C#N)C2c1ccccc1` (stereo not drawn), the TGI in the assay on EKVX NSCLC, in the assay with OVCAR-3 ovarian, in the assay with SF-539 CNS, in the assay on MDA-N, in the assay with LOX IMVI melanoma and with HCT-15 colon was greater than 100 µM each time. Further, the TGI in the assay with MCF7 breast, in the assay with SNB-19 CNS and with SK-MEL-5 melanoma was greater than 100 µM in each case.

`Cc1oc(N)c(S(=O)(=O)/C(C#N)=C/c2ccccc2[N+](=O)[O-])c1C`: the TGI in the assay on EKVX NSCLC was greater than 100 µM; in the assay with OVCAR-3 ovarian, 46.3 µM; in the assay on SR leukemia it was 40.2 µM; in the assay with SF-539 CNS, 61.4 µM; with MDA-N it was 46.9 µM; with LOX IMVI melanoma, 28.5 µM. In addition, the TGI is greater than 100 µM in the assay on HCT-15 colon, greater than 100 µM with MCF7 breast, 77.4 µM in the assay with SNB-19 CNS and 38.1 µM with SK-MEL-5 melanoma.

As for `COC(=O)C1CCC(=O)NCCCCC(NC(=O)C(N)CC(=O)O)C(=O)N1` (stereo not drawn) (H-Asp-Lys-Glu-OMe; lactam 2-3; configuration not given here), the TGI with EKVX NSCLC, in the assay with OVCAR-3 ovarian, in the assay on SR leukemia, in the assay on SF-539 CNS, in the assay on MDA-N and in the assay on LOX IMVI melanoma was greater than 100 µM throughout. In addition, the TGI in the assay on HCT-15 colon, with MCF7 breast, in the assay on SNB-19 CNS and in the assay on SK-MEL-5 melanoma was greater than 100 µM in each case.

As for `CCOC(=O)c1cnc2n(c1=O)[C@H]1CCCC[C@@H]1N2`, the TGI in the assay with EKVX NSCLC, in the assay with OVCAR-3 ovarian, in the assay on SF-539 CNS, in the assay on MDA-N, with LOX IMVI melanoma and with HCT-15 colon was greater than 100 µM each time. Moreover, the TGI in the assay on MCF7 breast, in the assay on SNB-19 CNS and with SK-MEL-5 melanoma was greater than 100 µM in each case.

Turning to `C[C@@H]1C[C@@H]2OC(=O)[C@]3(C)[C@H]2[C@@H](OC3(C)O)[C@]2(C)C(=O)C=C[C@@H]12` (stereo partly drawn), the TGI in the assay with EKVX NSCLC is 49.2 µM; with OVCAR-3 ovarian, 44.3 µM; in the assay on SR leukemia it was 28.5 µM; with SF-539 CNS, greater than 100 µM; with MDA-N, 35.5 µM; in the assay on LOX IMVI melanoma, 43 µM. Besides, the TGI with HCT-15 colon is 30.2 µM; with MCF7 breast it was 32.7 µM; with SNB-19 CNS, greater than 100 µM; with SK-MEL-5 melanoma, 51.2 µM.
